In US20230348362A1, “LIPID COMPOUNDS AND LIPID NANOPARTICLE COMPOSITIONS” (Suzhou Abogen Biosciences Co., Ltd., priority 2021, published 2023):

Assays:
Type in all cases: physicochemical
[1] = Lipid nanoparticle size and polydispersity by dynamic light scattering; conditions: LNP of lipid/DSPC/cholesterol/PEG-lipid 50:10:38.5:1.5 encapsulating hEPO mRNA
How it was run: (§1)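 LNPs made from ionizable lipid/DSPC/cholesterol/PEG-lipid (50:10:38.5:1.5) and mRNA in citrate pH 4 by microfluidic mixing, lipid:mRNA about 10:1–30:1 w/w, then dialysed into DPBS and filtered. Size and PDI measured by DLS in backscatter mode; encapsulation efficiency measured by RiboGreen assay.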

[2] = Encapsulation efficiency of lipid nanoparticles, Quant-it Ribogreen RNA assay; conditions: LNP of lipid/DSPC/cholesterol/PEG-lipid 50:10:38.5:1.5 encapsulating hEPO mRNA
How it was run: as §1

[3] = Apparent pKa of LNP formulations, TNS fluorescence assay; conditions: LNP cationic lipid/DSPC/cholesterol/DMG-PEG 50/10/38.5/1.5 mol %
How it was run: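 LNPs (cationic lipid/DSPC/cholesterol/DMG-PEG 50/10/38.5/1.5 mol %) diluted to 0.1 mg/mL total lipid in citrate/phosphate/borate/NaCl buffers spanning pH 3–9 with TNS. Fluorescence (ex 325, em 435 nm) read at room temperature; pKa taken as the pH at half-maximal intensity from sigmoidal fit.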

Q: For CCCCCCCCC(CCCCCCCC)COC(=O)CCCCCN(C/C=C/CN(CCCCCC(=O)OCC(CCCCCCCC)CCCCCCCC)C1CCC1)CCO [Compound 65], which polydispersity [1] is on record?
A: 0.044

Q: What about the “size (nm)” value [1] of the same compound?
A: 104.2 nm

Q: And the “Encapsulation Efficiency” value [2]?
A: 93.10%

Q: What about the “Apparent Pka” value [3] of the same compound?
A: 6.443

Q: For CCCCCCCCCCCOC(=O)CCCCCN(CCN(CCCCCC(=O)OCC(CCCCCCCC)CCCCCCCC)CCNc1c(NC)c(=O)c1=O)C1CCC1 [Compound 82], which polydispersity [1] is on record?
A: 0.066

Q: And the “size (nm)” value [1]?
A: 67.32 nm

Q: What about the “Encapsulation Efficiency” value [2] of the same compound?
A: 91.54%

Q: What about the “Apparent Pka” value [3] of the same compound?
A: 6.599

Q: With CCCCCCCCC(CCCCCC)CNC(=O)CCCCCCCN(CCO)CCN(CCCCC(COC(=O)CCCCCCC)COC(=O)CCCCCCC)C1CCCCC1 (centres unmarked) [Compound 235] as the compound, how does the polydispersity [1] read?
A: 0.093

Q: And the “size (nm)” value [1]?
A: 67.92 nm

Q: And the “Encapsulation Efficiency” value [2]?
A: 88.53%

Q: What about the “Apparent Pka” value [3] of the same compound?
A: 6.545

Q: For C/C=C/CN(CCCCCC(=O)OCC(CCCCCCCC)CCCCCCCC)CCN(CCO)CCCCCC(=O)OCC(CCCCCCCC)CCCCCCCC [Compound 41], which polydispersity [1] is on record?
A: 0.067

Q: What about the “size (nm)” value [1] of the same compound?
A: 55.24 nm

Q: And the “Encapsulation Efficiency” value [2]?
A: 88.2%

Q: And the “Apparent Pka” value [3]?
A: 6.134

Q: Which polydispersity [1] does the source give for CCCCCCCCC(CCCCCCCC)CNC(=O)CCCCCN(CCO)CCN(CCCCCC(=O)OCC(CCCCCCCC)CCCCCCCC)C1CCC1 [Compound 15] here?
A: 0.022

Q: And the “size (nm)” value [1]?
A: 65.95 nm

Q: And the “Encapsulation Efficiency” value [2]?
A: 86.0%

Q: And the “Apparent Pka” value [3]?
A: 6.724

Q: What does the source list for CCCCCCCCC(CCCCCC)CNC(=O)CCCCCN(CCCCN(CCO)CCCCC(COC(=O)CCCCCCC)COC(=O)CCCCCCC)C1CCCCCC1 (centres unmarked) [Compound 198]?
A: polydispersity [1]: 0.069; size (nm) [1]: 96.11 nm; Encapsulation Efficiency [2]: 88.41%; Apparent Pka [3]: 6.984

Q: Which results are given for CCCCCCCCC(CCCCCCCC)COC(=O)CCCCCN(CCO)CCN(CCCCCC(=O)OCCCCCC)C1CCCCC1 [Compound 101]?
A: polydispersity [1]: 0.078; size (nm) [1]: 98.67 nm; Encapsulation Efficiency [2]: 87.20%; Apparent Pka [3]: 6.423

Q: What does the source list for CCCCCCCCC(CCCCCCCC)CNC(=O)CCCCCN(CCO)CCN(CCCCCC(=O)NCC(CCCCCCCC)CCCCCCCC)C1CCCCC1 [Compound 13]?
A: polydispersity [1]: 0.105; size (nm) [1]: 60.71 nm; Encapsulation Efficiency [2]: 83.3%; Apparent Pka [3]: 6.633

Q: Which results are given for CCCCCCCC(=O)OCC(COCCN(CCO)CCN(CCOCC(COC(=O)CCCCCCC)COC(=O)CCCCCCC)C1CCC1)COC(=O)CCCCCCC [Compound 178]?
A: polydispersity [1]: 0.056; size (nm) [1]: 96.32 nm; Encapsulation Efficiency [2]: 89.15%; Apparent Pka [3]: 6.337

Q: Which results are given for CCCCCCCCC(CCCCCC)COC(=O)CCCCCN(CCO)CCN(CCCCCC(=O)OCC(CCCCCC)CCCCCCCC)C1CCC1 (centres unmarked) [Compound 7]?
A: polydispersity [1]: 0.06; size (nm) [1]: 72.78 nm; Encapsulation Efficiency [2]: 96.5%; Apparent Pka [3]: 6.427

Q: For CCCCCCCCC(CCCCCCCC)COC(=O)CCCCCN(CCN(CCO)CCOCCC(=O)OCC(CCCCCCCC)CCCCCCCC)C1CCCCC1 [Compound 111], which polydispersity [1] is on record?
A: 0.069

Q: What about the “size (nm)” value [1] of the same compound?
A: 76.24 nm

Q: What about the “Encapsulation Efficiency” value [2] of the same compound?
A: 92.05%

Q: And the “Apparent Pka” value [3]?
A: 6.108

Q: With CCCCCCCCC(CCCCCCCC)CNC(=O)CCCCCN(CCO)CCN(CCCCCC(=O)OCC(CCCCCCCC)CCCCCCCC)C1CCCC1 [Compound 16] as the compound, how does the polydispersity [1] read?
A: 0.035

Q: What about the “size (nm)” value [1] of the same compound?
A: 59.48 nm

Q: What about the “Encapsulation Efficiency” value [2] of the same compound?
A: 99.2%

Q: What about the “Apparent Pka” value [3] of the same compound?
A: 6.757

Q: Which polydispersity [1] does the source give for CCCCCCCCCCCOC(=O)CCCCCN(CCN(CCO)CCCCCC(=O)OCC(CCCCCCCC)CCCCCCCC)C1CC(OC)C1 (centres unmarked) [Compound 54] here?
A: 0.065

Q: What about the “size (nm)” value [1] of the same compound?
A: 77.99 nm

Q: What about the “Encapsulation Efficiency” value [2] of the same compound?
A: 93.4%

Q: What about the “Apparent Pka” value [3] of the same compound?
A: 6.51

Q: Which polydispersity [1] does the source give for CCCCCCCCC(CCCCCCCC)CNC(=O)CCCCCN(CCO)CCN(CCCCCC(=O)OCC(CCCCCCCC)CCCCCCCC)C1CCCCCC1 [Compound 17] here?
A: 0.033

Q: What about the “size (nm)” value [1] of the same compound?
A: 58.8 nm

Q: What about the “Encapsulation Efficiency” value [2] of the same compound?
A: 98.9%

Q: And the “Apparent Pka” value [3]?
A: 6.671

Q: With CCCCCCCCC(CCCCCC)CNC(=O)CCCCN(CCO)CCN(CCCCC(COC(=O)CCCCCCC)COC(=O)CCCCCCC)C1CCCCCC1 (centres unmarked) [Compound 229] as the compound, how does the polydispersity [1] read?
A: 0.042

Q: And the “size (nm)” value [1]?
A: 77.73 nm

Q: And the “Encapsulation Efficiency” value [2]?
A: 92.04%

Q: And the “Apparent Pka” value [3]?
A: 6.849

Q: Which results are given for CCCCCCCCCCCOC(=O)CCCCCN(CCN(CCO)CCCCCCCC(=O)OCC(CCCCCCCC)CCCCCCCC)C1CCCCC1 [Compound 48]?
A: polydispersity [1]: 0.037; size (nm) [1]: 73.5 nm; Encapsulation Efficiency [2]: 92.1%; Apparent Pka [3]: 6.295

Q: For CCCCCCCCC(CCCCCCCC)CNC(=O)CCCCCN(CCN(CCCCO)CCCCCC(=O)OCC(CCCCCCCC)CCCCCCCC)C1CCC1 [Compound 77], which polydispersity [1] is on record?
A: 0.006

Q: And the “size (nm)” value [1]?
A: 84.87 nm

Q: And the “Encapsulation Efficiency” value [2]?
A: 92.71%

Q: What about the “Apparent Pka” value [3] of the same compound?
A: 6.485

Q: What does the source list for CCCCCCCCCCCCCCCCC(CN(CCO)CCN(CC(CCCCCCCCCCCCCCCC)OCCCCCCCC)C1CCC1)OCCCCCCCC (centres unmarked) [Compound 25]?
A: polydispersity [1]: 0.068; size (nm) [1]: 50.59 nm; Encapsulation Efficiency [2]: 90.67%; Apparent Pka [3]: 4.853

Q: For CCCCCCCC(=O)OCC(COCCN(CCO)CCN(CCOCC(COC(=O)CCCCCCC)COC(=O)CCCCCCC)C1CCCCC1)COC(=O)CCCCCCC [Compound 179], which polydispersity [1] is on record?
A: 0.041

Q: And the “size (nm)” value [1]?
A: 103.40 nm

Q: What about the “Encapsulation Efficiency” value [2] of the same compound?
A: 89.97%

Q: And the “Apparent Pka” value [3]?
A: 6.322

Q: With CCCCCCCCC(CCCCCC)CNC(=O)CCCCCN(CCCCN(CCO)CCCCC(COC(=O)CCCCCCC)COC(=O)CCCCCCC)C1CCCCCCC1 (centres unmarked) [Compound 199] as the compound, how does the polydispersity [1] read?
A: 0.162

Q: What about the “size (nm)” value [1] of the same compound?
A: 80.14 nm

Q: And the “Encapsulation Efficiency” value [2]?
A: 94.30%

Q: What about the “Apparent Pka” value [3] of the same compound?
A: 6.858

Q: Which polydispersity [1] does the source give for CCCCCCCCCCCC(=O)OCCCCCN(CCN(CCO)CCCCCOC(=O)CC(CCCCCCCC)CCCCCCCC)C1CCCCC1 [Compound 57] here?
A: 0.044

Q: What about the “size (nm)” value [1] of the same compound?
A: 79.95 nm

Q: What about the “Encapsulation Efficiency” value [2] of the same compound?
A: 91.7%

Q: And the “Apparent Pka” value [3]?
A: 6.509

Q: Which results are given for CCCCCCCCC(CCCCCCCC)COC(=O)OCCCCCN(CCO)CCN(CCCCCNC(=O)CC(CCCCCC)CCCCCCCC)C1CCCCCC1 (centres unmarked) [Compound 153]?
A: polydispersity [1]: 0.048; size (nm) [1]: 73.95 nm; Encapsulation Efficiency [2]: 93.09%; Apparent Pka [3]: 6.437

Q: For CCCCCCCCC(CCCCCC)COC(=O)CCCCCN(CC=C(C)C)CCN(CCO)CCCCC1COC(C(CCCCCC)CCCCCCCC)OC1 (centres unmarked) [Compound 151], which polydispersity [1] is on record?
A: 0.064

Q: What about the “size (nm)” value [1] of the same compound?
A: 61.84 nm

Q: What about the “Encapsulation Efficiency” value [2] of the same compound?
A: 92.43%

Q: What about the “Apparent Pka” value [3] of the same compound?
A: 6.368

Q: For CCCCCCCCC(CCCCCC)CNC(=O)CCCCCN(CCOCCO)CCN(CCCCC(COC(=O)CCCCCCC)COC(=O)CCCCCCC)C1CCCCC1 (centres unmarked) [Compound 206], which polydispersity [1] is on record?
A: 0.07

Q: What about the “size (nm)” value [1] of the same compound?
A: 112.7 nm

Q: What about the “Encapsulation Efficiency” value [2] of the same compound?
A: 80.88%

Q: And the “Apparent Pka” value [3]?
A: 6.81

Q: With CCCCCCCCC(CCCCCCCC)COC(=O)CCCCCN(C)CCN(CCO)CCCCCC(=O)OCC(CCCCCCCC)CCCCCCCC [Compound 26] as the compound, how does the polydispersity [1] read?
A: 0.13

Q: And the “size (nm)” value [1]?
A: 63.47 nm

Q: What about the “Encapsulation Efficiency” value [2] of the same compound?
A: 97.57%

Q: What about the “Apparent Pka” value [3] of the same compound?
A: 7.024

Q: Which polydispersity [1] does the source give for CCCCCCCCC(CCCCCCCC)COC(=O)CCCCCN(CCO)CCN(CCCCCC(=O)OCC(CCCCCCCC)CCCCCCCC)C1CCOC1 (centres unmarked) [Compound 33] here?
A: 0.052

Q: What about the “size (nm)” value [1] of the same compound?
A: 57.51 nm

Q: And the “Encapsulation Efficiency” value [2]?
A: 87.6%

Q: And the “Apparent Pka” value [3]?
A: 6.305

Q: What does the source list for CCCCCCCCC(CCCCCCCC)COC(=O)CCCCCN(CCO)CCN(CCCCCC(=O)OCC(CCCCCCCC)CCCCCCCC)Cc1ccccc1 [Compound 36]?
A: polydispersity [1]: 0.093; size (nm) [1]: 49.69 nm; Encapsulation Efficiency [2]: 89.3%; Apparent Pka [3]: 5.802

Q: For CCCCCCCCC(CCCCCCCC)COC(=O)CCCCCN(CCO)CCN(CCCCCC(=O)OCC(CCCCCCCC)CCCCCCCC)Cc1ccc(C)cc1 [Compound 39], which polydispersity [1] is on record?
A: 0.034

Q: And the “size (nm)” value [1]?
A: 55.02 nm

Q: And the “Encapsulation Efficiency” value [2]?
A: 84.0%

Q: And the “Apparent Pka” value [3]?
A: 5.740

Q: With CCCCCCCCC(CCCCCCCC)COC(=O)CCCCCN(CCO)CCN(CCCCCOC(=O)CCCCCC(CCCCCC)CCCCCC)C1CCC1 [Compound 83] as the compound, how does the polydispersity [1] read?
A: 0.032

Q: And the “size (nm)” value [1]?
A: 87.87 nm

Q: And the “Encapsulation Efficiency” value [2]?
A: 92.51%

Q: And the “Apparent Pka” value [3]?
A: 6.233
